Our source for the IC50 values is patent US20220204498A1, “PYRIDO-PYRIMIDINYL COMPOUNDS AND METHODS OF USE” (Genentech, Inc., priority 2019, published 2022).

Counter-ions that a name gives are not always drawn.

T1 sequence (O75460 547-977 D688N): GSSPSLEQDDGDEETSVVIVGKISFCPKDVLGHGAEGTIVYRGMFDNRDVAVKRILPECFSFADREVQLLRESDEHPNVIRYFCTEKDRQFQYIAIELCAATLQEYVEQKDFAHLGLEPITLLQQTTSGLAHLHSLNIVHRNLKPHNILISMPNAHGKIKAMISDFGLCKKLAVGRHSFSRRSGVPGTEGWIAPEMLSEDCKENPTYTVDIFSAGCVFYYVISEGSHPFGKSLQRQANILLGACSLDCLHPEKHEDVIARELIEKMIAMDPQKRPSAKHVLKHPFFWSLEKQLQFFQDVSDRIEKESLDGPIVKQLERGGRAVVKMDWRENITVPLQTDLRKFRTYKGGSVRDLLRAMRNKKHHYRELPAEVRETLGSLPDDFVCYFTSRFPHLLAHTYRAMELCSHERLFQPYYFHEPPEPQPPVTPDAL

The assay addresses T1, IRE1α (Homo sapiens, UniProt O75460, D688N).
T1 construct: containing the kinase and RNase domains (KR, AA G547-1L977, D688N); made in house; host or cells: Sf9 insect cells
Description: IRE1α TR-FRET competition binding assay (IRE1α HTRF). To be noted: His-tagged IRE1α kinase dead construct (KR, D688N) 0.25 nM; Alexa fluor 647-labeled ATP competitive probe 2 nM; one hour at room temperature; read-out: IRE1α (alpha) HTRF (IC50). As for the experimental part: Example 59. IRE1α TR-FRET Competition Binding Assay
To determine the affinity of compound binding to the kinase domain of IRE1α, a time-resolved fluorescence resonance energy transfer (TR-FRET) competition assay was used.
A His-tagged IRE1α kinase dead construct containing the kinase and RNase domains (KR, AA G547-1L977, D688N) was expressed in Sf9 insect cells. The purified protein (final concentration 0.25 nM) was pre-incubated with anti-His Europium labeled antibody (Life Technologies PV5596, final concentration 2 nM) for one hour at 4° C. in TR-FRET Assay Buffer (50 mM HEPES, pH 7.5, 10 mM MgCl2, 0.083 mM Brij 35, 1 mM DTT, and 0.1% bovine gamma globulin) prior to addition to test compounds. An Alexa fluor 647-labeled probe based on an ATP competitive inhibitor was added to a final concentration of 2 nM. Reactions were carried out for one hour at room temperature in a final volume of 20 μL in 384 well white ProxiPlates (Perkin Elmer 6008289). Binding of the probe to the IRE1α protein was detected in an Envision instrument (PerkinElmer) equipped with a TRF laser option and a LANCE/Delfia Dual/Bias D400/D630 mirror (Ex 347 nm, 1st Em 665 nm, 2nd Em 615 nm).
In general terms: In TR-FRET formats the signal depends on donor and acceptor labels being close together.
Turning to `Cc1cc(-c2ccc(NS(=O)(=O)Cc3ccc(C#N)cc3)c(F)c2)nc2cnc(N[C@@H]3CNC[C@@H](F)C3)nc12` [Compound 116, 1-(4-Cyanophenyl)-N-(2-fluoro-4-(2-(((3S,5S)-5-fluoropiperidin-3-yl)amino)-8-methylpyrido[3,2-d]pyrimidin-6-yl)phenyl)methanesulfonamide formate], the IC50 was found to be 0.13 nM.

On to `O=S(=O)(Cc1ccc(F)cc1)Nc1ccc(-c2cc(C(F)F)c3nc(N[C@@H]4CNC[C@@H](F)C4)ncc3n2)cc1F` [Compound 139, N-[4-[8-(Difluoromethyl)-2-[[(3S,5S)-5-fluoro-3-piperidyl]amino]pyrido[3,2-d]pyrimidin-6-yl]-2-fluoro-phenyl]-1-(4-fluorophenyl)methanesulfonamide hydrochloride], for which the IC50 worked out at 0.23 nM.

Turning to `Cc1cc(-c2ccc(NS(=O)(=O)CCC(F)(F)F)c(F)c2)nc2cnc(N[C@@H]3CNC[C@@H](F)C3)nc12` [Compound 110, 3,3,3-Trifluoro-N-(2-fluoro-4-(2-(((3S,5S)-5-fluoropiperidin-3-yl)amino)-8-methylpyrido[3,2-d]pyrimidin-6-yl)phenyl)propane-1-sulfonamide], the half-inhibitory concentration (IC50) was found to be 1.1 nM.

For `CN(C)[C@H]1CC[C@H](Nc2ncc3nc(-c4ccc(NS(=O)(=O)c5ccccc5Cl)c(F)c4)cc(C(F)F)c3n2)CC1` [Compound 143, 2-Chloro-N-[(1,4-trans)-4-[8-(difluoromethyl)-2-[[4-(dimethylamino)cyclohexyl]amino]pyrido[3,2-d]pyrimidin-6-yl]-2-fluoro-phenyl]benzenesulfonamide], the IC50 stood at 0.2 nM.

Turning to `Cc1nc(NS(=O)(=O)c2ccccc2Cl)ccc1-c1cc(C)c2nc(N[C@@H]3CNC[C@@H](F)C3)ncc2n1` [Compound 136, 2-Chloro-N-(5-(2-(((3S,5S)-5-fluoropiperidin-3-yl)amino)-8-methylpyrido[3,2-d]pyrimidin-6-yl)-6-methylpyridin-2-yl)benzenesulfonamide], the concentration for half-maximal inhibition (IC50) turned out to be 14 nM.

Regarding `CCc1cc(-c2ccc(NS(=O)(=O)c3ccccc3OC(F)F)nc2C)nc2cnc(N[C@H]3CC[C@H](N(C)C)CC3)nc12` [Compound 148, 2-(Difluoromethoxy)-N-(5-(2-(((1,4-trans)-4-(dimethylamino)cyclohexyl)amino)-8-ethylpyrido[3,2-d]pyrimidin-6-yl)-6-methylpyridin-2-yl)benzenesulfonamide], the IC50 was determined as 0.51 nM.

As for `Cc1cc(-c2ccc(NS(=O)(=O)c3ccccc3Cl)c(F)c2)nc2cnc(N[C@H]3CC[C@H](N(C)C)CC3)nc12` [Compound 128, 2-Chloro-N-(4-(2-(((1,4-trans)-4-(dimethylamino)cyclohexyl)amino)-8-methylpyrido[3,2-d]pyrimidin-6-yl)-2-fluorophenyl)benzenesulfonamide], the IC50 turned out to be 0.16 nM.

In the case of `CCCS(=O)(=O)Nc1ccc(-c2cc(C)c3nc(N[C@H]4CC[C@H](N(C)C)CC4)ncc3n2)cc1F` [Compound 112, N-(4-(2-(((1,4-trans)-4-(Dimethylamino)cyclohexyl)amino)-8-methylpyrido[3,2-d]pyrimidin-6-yl)-2-fluorophenyl)propane-1-sulfonamide formate], the IC50 worked out at 0.32 nM.

Turning to `CC(Oc1nc2nc(N[C@@H]3CNC[C@@H](F)C3)ncc2cc1-c1ccc(NS(=O)(=O)Cc2ccccc2)c(F)c1F)C(F)F` (single isomer, unassigned) [Compound 102], the IC50 turned out to be 1.1 nM.

`Cc1nc(NS(=O)(=O)CCC(F)(F)F)ccc1-c1cc(C)c2nc(N[C@H]3CC[C@H](N(C)C)CC3)ncc2n1` [Compound 126, N-(5-(2-(((1,4-trans)-4-(Dimethylamino)cyclohexyl)amino)-8-methylpyrido[3,2-d]pyrimidin-6-yl)-6-methylpyridin-2-yl)-3,3,3-trifluoropropane-1-sulfonamide]: the 50% inhibitory concentration (IC50) turned out to be 18 nM.

Regarding `CCc1cc(-c2ccc(NS(=O)(=O)Cc3ccc(F)cc3)nc2OC)nc2cnc(N[C@H]3CC[C@H](N(C)C)CC3)nc12` [Compound 142, N-(5-(2-(((1,4-trans)-4-(Dimethylamino)cyclohexyl)amino)-8-ethylpyrido[3,2-d]pyrimidin-6-yl)-6-methoxypyridin-2-yl)-1-(4-fluorophenyl)methanesulfonamide], the concentration for half-maximal inhibition (IC50) came out at 0.14 nM.

`Cc1cc(-c2ccc(NS(=O)(=O)CCC(F)(F)F)c(F)c2)nc2cnc(N[C@H]3CC[C@H](N(C)C)CC3)nc12` [Compound 107, N-(4-(2-(((1r,4r)-4-(Dimethylamino)cyclohexyl)amino)-8-methylpyrido[3,2-d]pyrimidin-6-yl)-2-fluorophenyl)-3,3,3-trifluoropropane-1-sulfonamide]: the IC50 worked out at 0.2 nM.

Turning to `COc1cc(-c2ccc(NS(=O)(=O)CCC(F)(F)F)c(F)c2)nc2cnc(N[C@H]3CC[C@H](N(C)C)CC3)nc12` [Compound 118, N-(4-(2-(((1,4-trans)-4-(Dimethylamino)cyclohexyl)amino)-8-methoxypyrido[3,2-d]pyrimidin-6-yl)-2-fluorophenyl)-3,3,3-trifluoropropane-1-sulfonamide formate], the IC50 was determined as 22 nM.

`Cc1cc(-c2c(F)cc(NS(=O)(=O)Cc3ccc(F)cc3)cc2F)nc2cnc(N[C@H]3CC[C@H](N(C)C)CC3)nc12` [Compound 140, N-(4-(2-(((1,4-trans)-4-(Dimethylamino)cyclohexyl)amino)-8-methylpyrido[3,2-d]pyrimidin-6-yl)-3,5-difluorophenyl)-1-(4-fluorophenyl)methanesulfonamide]: the IC50 was 4.5 nM.

With `Cc1cc(-c2cc(F)c(NS(=O)(=O)c3ccccc3Cl)c(F)c2F)nc2cnc(N[C@H]3CC[C@H](N(C)C)CC3)nc12` [Compound 155, 2-Chloro-N-(4-(2-(((1,4-trans)-4-(dimethylamino)cyclohexyl)amino)-8-methylpyrido[3,2-d]pyrimidin-6-yl)-2,3,6-trifluorophenyl)benzenesulfonamide], the IC50 was 0.19 nM.

Regarding `CCC(F)(F)CS(=O)(=O)Nc1ccc(-c2cc(C)c3nc(N[C@H]4CC[C@H](N(C)C)CC4)ncc3n2)cc1F` [Compound 117, N-(4-(2-(((1,4-trans)-4-(Dimethylamino)cyclohexyl)amino)-8-methylpyrido[3,2-d]pyrimidin-6-yl)-2-fluorophenyl)-2,2-difluorobutane-1-sulfonamide formate], the IC50 was 0.11 nM.

With `CCc1cc(-c2ccc(NS(=O)(=O)CCC(F)(F)F)c(F)c2)nc2cnc(N[C@H]3CC[C@H](N(C)C)CC3)nc12` [Compound 114, N-(4-(2-(((1,4-trans)-4-(Dimethylamino)cyclohexyl)amino)-8-ethylpyrido[3,2-d]pyrimidin-6-yl)-2-fluorophenyl)-3,3,3-trifluoropropane-1-sulfonamide], the half-inhibitory concentration (IC50) turned out to be 0.08 nM.

In the case of `CN(C)[C@H]1CC[C@H](Nc2ncc3nc(-c4ccc(NS(=O)(=O)CCC(F)(F)F)c(F)c4)cc(C(F)F)c3n2)CC1` [Compound 144, N-[(1,4-trans)-4-[8-(Difluoromethyl)-2-[[4-(dimethylamino)cyclohexyl]amino]pyrido[3,2-d]pyrimidin-6-yl]-2-fluoro-phenyl]-3,3,3-trifluoro-propane-1-sulfonamide], the IC50 is 0.16 nM.

On to `Cc1cc(-c2ccc(NS(=O)(=O)Cc3ccc(F)cc3F)c(F)c2)nc2cnc(N[C@@H]3CNC[C@@H](F)C3)nc12` [Compound 115, 1-(2,4-Difluorophenyl)-N-(2-fluoro-4-(2-(((3S,5S)-5-fluoropiperidin-3-yl)amino)-8-methylpyrido[3,2-d]pyrimidin-6-yl)phenyl)methanesulfonamide], for which the IC50 came to 0.26 nM.

Take `Cc1cc(-c2cc(F)c(NS(=O)(=O)Cc3ccc(F)cc3)c(F)c2F)nc2cnc(N[C@H]3CC[C@H](N(C)C)CC3)nc12` [Compound 153, N-(4-(2-(((1,4-trans)-4-(Dimethylamino)cyclohexyl)amino)-8-methylpyrido[3,2-d]pyrimidin-6-yl)-2,3,6-trifluorophenyl)-1-(4-fluorophenyl)methanesulfonamide]: the IC50 worked out at 0.16 nM.

For `Cc1cc(-c2ccc(NS(=O)(=O)c3ccccc3C#N)c(F)c2)nc2cnc(N[C@H]3CC[C@H](N(C)C)CC3)nc12` [Compound 150, 2-Cyano-N-[(1,4-trans)-4-[2-[[4-(dimethylamino)cyclohexyl]amino]-8-methyl-pyrido[3,2-d]pyrimidin-6-yl]-2-fluoro-phenyl]benzenesulfonamide], the IC50 amounted to 0.15 nM.

As for `CCCS(=O)(=O)Nc1ccc(-c2cc(C)c3nc(N[C@@H]4CNC[C@@H](F)C4)ncc3n2)cc1F` [Compound 111, N-(2-Fluoro-4-(2-(((3S,5S)-5-fluoropiperidin-3-yl)amino)-8-methylpyrido[3,2-d]pyrimidin-6-yl)phenyl)propane-1-sulfonamide], the IC50 was 2.1 nM.

Turning to `Cc1nc(NS(=O)(=O)c2ccccc2Cl)ccc1-c1cc(C(F)F)c2nc(N[C@H]3CC[C@H](N(C)C)CC3)ncc2n1` [Compound 145, 2-Chloro-N-[5-[8-(difluoromethyl)-2-[[(1,4-trans)-4-(dimethylamino)cyclohexyl]amino]pyrido[3,2-d]pyrimidin-6-yl]-6-methyl-2-pyridyl]benzenesulfonamide], the IC50 is 0.25 nM.

A word on the IC50: it is the concentration that gives 50% inhibition.
